Experimental data taken from patent US20090062294A1, “HETEROARYL-SUBSTITUTED UREA MODULATORS OF FATTY ACID AMIDE HYDROLASE” (priority 2007, published 2009).
Structures can show the parent of a compound that is named as a salt.

Key:
FAAH = target: T1, FAAH (Homo sapiens, UniProt O00519); assay: Assay Method 1: FAAH assay, 3H-anandamide hydrolysis in homogenate of T84 cells or SK-N-MC cells transfected with human FAAH; format: biochemical; settings: average of results, > = solubility limit or highest concentration tested
T1 sequence (O00519 1-579): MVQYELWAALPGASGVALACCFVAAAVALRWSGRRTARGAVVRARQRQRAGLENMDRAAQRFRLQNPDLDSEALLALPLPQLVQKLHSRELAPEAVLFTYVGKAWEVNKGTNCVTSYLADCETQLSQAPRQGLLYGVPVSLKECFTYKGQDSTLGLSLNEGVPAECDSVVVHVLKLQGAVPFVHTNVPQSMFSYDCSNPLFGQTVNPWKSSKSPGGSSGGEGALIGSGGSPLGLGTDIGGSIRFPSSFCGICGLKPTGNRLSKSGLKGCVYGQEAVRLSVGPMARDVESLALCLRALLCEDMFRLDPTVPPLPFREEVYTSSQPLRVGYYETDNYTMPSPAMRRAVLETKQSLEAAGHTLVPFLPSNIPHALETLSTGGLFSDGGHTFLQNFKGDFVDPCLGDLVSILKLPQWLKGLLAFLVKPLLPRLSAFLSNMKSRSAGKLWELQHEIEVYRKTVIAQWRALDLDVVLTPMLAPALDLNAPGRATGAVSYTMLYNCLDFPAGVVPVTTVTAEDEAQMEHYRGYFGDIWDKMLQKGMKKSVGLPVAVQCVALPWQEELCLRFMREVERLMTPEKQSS
In short: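 Hydrolysis of ^3H-anandamide (80 nM final, added last) was measured over 1 h at rt, using test compound with homogenate of T84 cells or human FAAH-transfected SK-N-MC cells. The homogenization buffer was 125 mM Tris, 1 mM EDTA, 0.02% Triton X-100, pH 9. Unbound labelled ethanolamine was passed through charcoal filters and scintillation-counted.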

rat FAAH = target: T2, rat FAAH (Rattus norvegicus, UniProt P97612); assay: Assay Method 2: FAAH assay, 3H-anandamide hydrolysis in homogenate of SK-N-MC cells transfected with rat FAAH; format: biochemical; settings: average of results, > = solubility limit or highest concentration tested
T2 sequence (P97612 1-579): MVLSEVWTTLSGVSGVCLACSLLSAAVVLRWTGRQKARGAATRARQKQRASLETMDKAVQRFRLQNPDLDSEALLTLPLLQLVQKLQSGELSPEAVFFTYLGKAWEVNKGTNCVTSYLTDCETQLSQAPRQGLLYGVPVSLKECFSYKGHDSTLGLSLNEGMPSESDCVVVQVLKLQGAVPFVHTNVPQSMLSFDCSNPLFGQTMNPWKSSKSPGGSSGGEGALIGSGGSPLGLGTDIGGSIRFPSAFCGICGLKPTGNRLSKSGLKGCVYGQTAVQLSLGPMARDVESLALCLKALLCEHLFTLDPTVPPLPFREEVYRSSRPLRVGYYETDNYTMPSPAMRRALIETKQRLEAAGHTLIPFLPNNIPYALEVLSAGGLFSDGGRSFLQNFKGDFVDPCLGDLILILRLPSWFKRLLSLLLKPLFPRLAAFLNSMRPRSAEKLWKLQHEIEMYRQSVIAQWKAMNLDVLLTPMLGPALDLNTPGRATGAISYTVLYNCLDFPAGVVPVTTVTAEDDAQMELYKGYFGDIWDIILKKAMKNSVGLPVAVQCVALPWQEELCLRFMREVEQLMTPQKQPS
In short: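 Read-out is scintillation counting of [3H]-ethanolamine passing through activated charcoal, after 1 h at rt with 80 nM final [3H]-AEA. Enzyme source: lysate of G418-selected SK-N-MC clones expressing rat FAAH, homogenized in Tris/EDTA/glycerol/0.02% Triton buffer, pH 9.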

| Structure (SMILES) | IC50 (FAAH) | IC50 (rat FAAH) |
| --- | --- | --- |
| O=C(Nc1noc2ccccc12)N1CCN(Cc2cccc(Oc3cccc(OC(F)(F)F)c3)c2)CC1 [Example 29, 4-[3-(3-Trifluoromethoxy-phenoxy)-benzyl]-piperazine-1-carboxylic acid benzo[d]isoxazol-3-ylamide trifluoroacetic acid salt] | 0.016 µM | 0.023 µM |
| O=C(Nc1noc2ccccc12)N1CCN(Cc2cccc(Oc3cccc(Br)c3)c2)CC1 [Example 31, 4-[3-(3-Bromo-phenoxy)-benzyl]-piperazine-1-carboxylic acid benzo[d]isoxazol-3-ylamide trifluoroacetic acid salt] | 0.022 µM | 0.017 µM |
| O=C(Nc1noc2ccccc12)N1CCN(Cc2ccc(F)c(OC(F)(F)F)c2)CC1 [Example 106, N-1,2-Benzisoxazol-3-yl-4-[4-fluoro-3-(trifluoromethoxy)benzyl]-piperazine-1-carboxamide] | 0.08 µM | 0.027 µM |
| O=C(Nc1nc(-c2ccccc2)ns1)N1CCC(Cc2ccc3ccccc3c2)CC1 [Example 12, 4-Naphthalen-2-ylmethyl-piperidine-1-carboxylic acid (3-phenyl-[1,2,4]thiadiazol-5-yl)-amide] | 5 µM | 3 µM |
| O=C(Nc1cccc2nsnc12)N1CCN(Cc2cccc(Oc3cccc(C(F)(F)F)c3)c2)CC1 [Example 40, 4-[3-(3-Trifluoromethyl-phenoxy)-benzyl]-piperazine-1-carboxylic acid benzo[1,2,5]thiadiazol-4-ylamide trifluoroacetic acid salt] | 0.156 µM | 0.015 µM |
| O=C(Nc1noc2ccccc12)N1CCN(Cc2cccc(C#Cc3ccc(Cl)cc3Cl)c2)CC1 [Example 81, N-1,2-Benzisoxazol-3-yl-4-{3-[(2,4-dichlorophenyl)-ethynyl]benzyl}-piperazine-1-carboxamide] | 0.453 µM | 0.238 µM |
| O=C(Nc1nnn[nH]1)N1CCN(Cc2cnc3ccccc3c2)CC1 [Example 165, 4-(Quinolin-3-ylmethyl)-N-1H-tetrazol-5-ylpiperazine-1-carboxamide] | 8 µM | 6 µM |

More lines, in order of falling IC50 (FAAH), values ahead:

| IC50 (FAAH) | IC50 (rat FAAH) | Structure (SMILES) |
| --- | --- | --- |
| 4 µM | > 10 µM | Cn1cc(Br)c(NC(=O)N2CCN(Cc3cccc(Oc4ccc(Cl)cc4)c3)CC2)n1 [Example 192, 4-[3-(4-Chloro-phenoxy)-benzyl]-piperazine-1-carboxylic acid (4-bromo-1-methyl-1H-pyrazol-3-yl)-amide trifluoroacetic acid salt] |
| 0.21 µM | 0.35 µM | O=C(Nc1cccc2nonc12)N1CCN(Cc2cccc(C#Cc3ccccc3)c2)CC1 [Example 203, N-2,1,3-Benzoxadiazol-4-yl-4-{[3-(phenylethynyl)phenyl]methyl}-piperazine-1-carboxamide] |
| 0.024 µM | 0.115 µM | O=C(Nc1noc2ccccc12)N1CCN(Cc2cccc(C#Cc3ccccc3)c2)CC1 [Example 133, N-1,2-Benzisoxazol-3-yl-4-{[3-(phenylethynyl)phenyl]methyl}piperazine-1-carboxamide] |
| 0.02 µM | 0.03 µM | O=C(Nc1noc2ccccc12)N1CCN(Cc2cc3ccccc3s2)CC1 [Example 113, N-1,2-Benzisoxazol-3-yl-4-(1-benzothiophen-2-ylmethyl)piperazine-1-carboxamide] |
| 0.013 µM | 0.007 µM | O=C(Nc1nn[nH]n1)N1CCN(Cc2cccc(Oc3ccc4ccccc4c3)c2)CC1 [Example 166, 4-[3-(Naphthalen-2-yloxy)benzyl]-N-1H-tetrazol-5-ylpiperazine-1-carboxamide] |
| 0.007 µM | 0.004 µM | O=C(Nc1noc2ccccc12)N1CCN(Cc2cccc(Oc3ccc4c(c3)OC(F)(F)O4)c2)CC1 [Example 131, N-1,2-Benzisoxazol-3-yl-4-{3-[(2,2-difluoro-1,3-benzodioxol-5-yl)oxy]benzyl}piperazine-1-carboxamide] |
| 0.003 µM | 0.05 µM | O=C(Nc1cnccn1)N1CCN(Cc2cccc(Oc3ccc(Br)cc3)c2)CC1 [Example 221, 4-[3-(4-Bromophenoxy)benzyl]-N-pyrazin-2-ylpiperazine-1-carboxamide] |
